Measurements from patent US20060088815A1, “Method for evaluation of endocrine disruptive action” (THE UNIVERSITY OF TOKYO, priority 2004, published 2006).

Tested on: hippocampal tissue slice
Assay: Excitatory postsynaptic potential of hippocampal tissue slices on a multiple-electrode probe; NMDA-induced long-term depression
Assay type: cell-based, rat
Conditions: substance 1 nM perfused for 30 minutes before NMDA (30 μM, 3 minutes)
Description: Now, an example of a specific embodiment for the above-mentioned evaluating method 1 will be illustrated. First, the preparation of a cell group and a setting method of experimental conditions are explained below. With regard to the cell group, a tissue slice which was a transversely cut in a hippocampal region along a long-axis which was cut out from a brain tissue of an adult rat using a vibratome (DSK ZERO 1; manufactured by Dosaka EM K.K.) was used. Thickness of the hippocampal tissue slice was made 300 μm.
For the measurement of an electrophysiological response of this hippocampal tissue slice, a multiple-electrode measuring apparatus MED 64 System (Alpha Med) was used. With regard to an electrode arranged in the hippocampal tissue slice, a multiple-electrode probe MED-P530A (Alpha Med) attached to this multiple-electrode measuring apparatus was used. On a substrate of this multiple-electrode probe, plural electrodes are previously arranged regularly with a predetermined interval (300 μm).
One sheet of the hippocampal tissue slice cut out by a vibratome was allowed to stand in a chamber placed on a substrate of one multiple-electrode probe and, at the same time, an artificial cerebrospinal fluid sufficiently saturated with a mixed gas of oxygen and carbon dioxide (95% oxygen gas and 5% carbon dioxide gas) was filled in the chamber whereby the hippocampal tissue slice was soaked in the artificial cerebrospinal fluid followed by being allowed to stand at room temperature for 1 hour or longer. With regard to the artificial cerebrospinal fluid, an aqueous solution containing 124 mM of NaCl, 1.25 mM of NaH2PO4.2H2O, 5 mM of KCl, 2 mM of MgSO4.7H2O, 2 mM of CaCl2, 22 mM of NaHCO3 and 10 mM of […] was used.
In this artificial cerebrospinal fluid, the hippocampal tissue slice was placed on the multiple-electrode probe so that the cells included in each of three regions comprising one dentate gyrus and two cornu ammonis regions near the surface of the hippocampal tissue slice were brought into contact with plural electrodes on the multiple-electrode probe. Thus, a stimulating electrode which applies electrical stimulation to presynaptic fiber projecting to the nerve cell group and a recording electrode which records excitatory postsynaptic potential induced by the electrical stimulation in the nerve cell group as accumulated potential are arranged for each of pyramidal cells of cornu ammonis CA1 field, pyramidal cells of cornu ammonis CA3 field and granular cells of dentate gyrus.
Electrical stimulation to a hippocampal tissue slice by a stimulating electrode was carried out by repeated application of electrical stimulation at intervals of 15 seconds in the order of a stimulating electrode arranged in a cornu ammonis CA1 field, a stimulating electrode arranged in a cornu ammonis CA3 field, a stimulating electrode arranges in a dentate gyrus and, again, a stimulating electrode arranged in a cornu ammonis CA1 field. The excitatory postsynaptic potential induced by the electrical stimulation was recorded for about 30 minutes and, after confirming that the accumulated potential was stabilized, strength of electrical stimulation applied from the stimulating electrode was set in each of the following steps. […] When the strength of the measured accumulated potential was saturated (or became constant), the strength of the saturated accumulated potential was defined as maximum (100%) and strength of electrical stimulation to be applied to the hippocampal tissue slice from the stimulating electrode was set so as to make the value 50% of the above maximum value.
In this Example, DES was used as an object substance, estradiol, which is one example of estrogen, was used as an agonist to hormone receptor and NMDA was used as a stimulant. […]

Row | Compound | excitatory postsynaptic potential 50 minutes after administration of NMDA, relative to that before administration of NMDA (cornu ammonis CA1 field) | excitatory postsynaptic potential 50 minutes after administration of NMDA, relative to that before administration of NMDA (cornu ammonis CA3 field) | excitatory postsynaptic potential 50 minutes after administration of NMDA, relative to that before administration of NMDA (dentate gyrus)
1 | CC/C(=C(/CC)c1ccc(O)cc1)c1ccc(O)cc1 [DES, diethylstilbestrol] | about 40% | about 75% | about 68%
2 | C[C@]12CC[C@@H]3c4ccc(O)cc4CC[C@H]3[C@@H]1CC[C@@H]2O [estradiol] | about 40% | about 55% | about 80%
